25 compounds from ChEMBL document CHEMBL1201862, “PubChem BioAssay data set” (2004) can be followed below.

Molecules are shown by their SMILES.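 Method: 48-hour compound exposure of cells in 96-well plates, five concentrations, linear interpolation of endpoints. Abbreviation: GI50, concentration required for 50% inhibition of growth.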 Active and inactive are the calls of the source. Cut-off read from the data, not from the text of the source: active = GI50 up to about 1.1 µM and inactive = higher. Where only a bound is given, the exact number is not on record here.

Test systems include KM-20L2; RXF 631; DMS-114; M19-MEL; DMS-273; HOP-18; SNB-78; LXFL 529; XF498.
Assay in all cases: inhibition of tumour cell growth, NCI panel, 48 h

Regarding `O=C1/C(=C/c2cc(O)c(O)c(O)c2)Oc2cc(O)cc(OC3OC(CO)C(O)C(O)C3O)c21` (stereo not given), the GI50 in the test on KM-20L2 is 21.2 µM (inactive); in the test with RXF 631, 1.81 µM (inactive); in the test on DMS-114 it was 25.2 µM (inactive); in the test on M19-MEL, 18 µM (inactive); with DMS-273, 1.85 µM (inactive); with HOP-18, 53.5 µM (inactive). For the same compound, the GI50 was 19.4 µM (inactive) in the test on SNB-78 and 14.6 µM (inactive) with LXFL 529.
Turning to `CCOc1ccccc1NC(=O)C(=O)Cc1nc2ccccc2s1`, the GI50 with KM-20L2, in the test on RXF 631, in the test with DMS-114, with M19-MEL, in the test on DMS-273 and in the test with HOP-18 was > 100 µM (inactive) throughout. In addition, the GI50 in the test on SNB-78, in the test with XF498 and in the test on LXFL 529 was > 100 µM (inactive) throughout.
Turning to `CCc1cccc(C(C)C)c1NC(=O)C(=O)C(C(=O)C(=O)OC)c1nc2ccccc2nc1O` (stereo not given), the GI50 with KM-20L2, with RXF 631, in the test on DMS-114, in the test on M19-MEL, in the test with DMS-273 and in the test with HOP-18 was > 100 µM (inactive) in each case. Further, the GI50 in the test with SNB-78, in the test on XF498 and in the test with LXFL 529 was > 100 µM (inactive) throughout.
`C=CCc1cc(-c2cc(CC=C)c(O)c(CNCCCl)c2)cc(CNCCCl)c1O`: the GI50 in the test with KM-20L2 was 17.5 µM (inactive); in the test with DMS-114, 21.1 µM (inactive); in the test on M19-MEL it was 17.1 µM (inactive); in the test on SNB-78 it was 39.3 µM (inactive); in the test with LXFL 529, 15.1 µM (inactive).
As to `CC(=O)/C=C1\CC(=O)Nc2ccccc2N1`, the GI50 in the test with KM-20L2, with DMS-114, in the test with SNB-78 and with LXFL 529 was > 100 µM (inactive) throughout.
`COC(=O)/C(=C/c1ccc(OC)cc1)C(C(=O)O)=C1CCCC1`: the GI50 with KM-20L2 is > 100 µM (inactive); with RXF 631, > 100 µM (inactive); with M19-MEL it was > 100 µM (inactive); in the test with DMS-273 it was > 100 µM (inactive); with SNB-78, > 100 µM (inactive); in the test with XF498, 11.7 µM (inactive). In addition, the GI50 in the test with LXFL 529 was > 100 µM (inactive).
With `Cc1cccc(C)c1NC(=O)/C(=N/NC(N)=S)C(C)C(=O)c1ccc(Cl)cc1` (stereo not given), the GI50 with KM-20L2, in the test with RXF 631, in the test with DMS-114, in the test with M19-MEL, with DMS-273 and in the test with HOP-18 was > 100 µM (inactive) each time. The GI50 in the test with SNB-78, with XF498 and in the test with LXFL 529 was > 100 µM (inactive) in each case.
With `COc1ccccc1NC(=O)CC(=O)n1nc(C)c(/N=N/c2ccccc2Cl)c1C`, the GI50 with KM-20L2 is > 100 µM (inactive); in the test on RXF 631, > 31.6 µM (inactive); in the test with DMS-114, > 100 µM (inactive); in the test with M19-MEL it was > 100 µM (inactive); in the test with DMS-273, > 100 µM (inactive); in the test on HOP-18, > 100 µM (inactive). The GI50 is 5.12 µM (inactive) in the test with SNB-78, > 100 µM (inactive) with XF498 and > 100 µM (inactive) with LXFL 529.
For `CCCCCCCCCCCCCCCCCCN(C)C(COC)COP(=O)([O-])OCC[N+](C)(C)C` (stereo not given), the GI50 is 2.08 µM (inactive) with KM-20L2; 6.85 µM (inactive) in the test on RXF 631; 3.25 µM (inactive) in the test with M19-MEL; 1.38 µM (inactive) with DMS-273; 6.08 µM (inactive) with HOP-18; 4.5 µM (inactive) in the test on SNB-78. The figures for the GI50 with XF498 and in the test with LXFL 529 were 18.6 µM (inactive) and 4.26 µM (inactive), respectively.
`CCOC(=O)c1oc2ccc(OC)c3c2c1CCC3`: the GI50 with DMS-114 was > 100 µM (inactive); in the test with M19-MEL, > 100 µM (inactive); in the test on DMS-273 it was > 100 µM (inactive); with SNB-78, > 100 µM (inactive); in the test with XF498, > 100 µM (inactive); with LXFL 529 it was 65.6 µM (inactive).
Consider `CN1C(=O)C(=CN)C(=O)N(C)C1=O`, for which the GI50 in the test with KM-20L2, in the test with DMS-114, in the test on M19-MEL, with HOP-18, in the test on SNB-78 and in the test with XF498 was > 100 µM (inactive) in each case.
As to `O=C(CC1(O)C(=O)Nc2ccc(Br)cc21)c1ccc(Cl)cc1` (stereo not given), the GI50 in the test with KM-20L2 is > 100 µM (inactive); in the test with RXF 631 it was 31.5 µM (inactive); in the test with HOP-18, 72.4 µM (inactive); in the test with SNB-78, 83.8 µM (inactive); in the test on LXFL 529 it was > 100 µM (inactive).
In the case of `CC(C)N(C(=O)C12C3C4C5C3C1(C(=O)N(C(C)C)C(C)C)C5C42)C(C)C` (stereo not given), the GI50 was > 100 µM (inactive) in the test with KM-20L2; > 44.5 µM (inactive) with DMS-114; > 100 µM (inactive) with M19-MEL; > 41.7 µM (inactive) with DMS-273; > 100 µM (inactive) with HOP-18; > 100 µM (inactive) in the test on SNB-78. Also, the GI50 in the test with XF498 was > 100 µM (inactive); in the test on LXFL 529, > 80.4 µM (inactive).
As to `CCCc1cc(OC(=O)c2c(O)cc(OC)cc2CCC)cc(O)c1C(=O)O`, the GI50 is 37.4 µM (inactive) in the test with KM-20L2; 26.3 µM (inactive) in the test with RXF 631; 19.6 µM (inactive) in the test on DMS-114; 42.8 µM (inactive) with M19-MEL; 32.1 µM (inactive) with DMS-273; 25 µM (inactive) in the test on SNB-78. Besides, the results for the GI50 in the test with XF498 and in the test with LXFL 529 were 25.9 µM (inactive) and 24.1 µM (inactive), respectively.
As for `Cc1nc2c3c(ccc2nc1O)C(=O)c1ccccc1C3=O`, the GI50 is > 100 µM (inactive) in the test with KM-20L2; 44.8 µM (inactive) in the test on DMS-114; > 100 µM (inactive) in the test on M19-MEL; 66.7 µM (inactive) in the test on HOP-18; > 100 µM (inactive) in the test with XF498; 70 µM (inactive) with LXFL 529.
Regarding `CC(C)=CCOc1ccc(-c2coc3cc4c(c(O)c3c2=O)C=CC(C)(C)O4)cc1`, the GI50 in the test on KM-20L2 was > 100 µM (inactive); in the test on DMS-114, 18.2 µM (inactive); in the test with M19-MEL, 47.9 µM (inactive); in the test with SNB-78 it was 59.3 µM (inactive); with XF498, 15.9 µM (inactive); in the test on LXFL 529 it was 20.9 µM (inactive).
Consider `Cc1ccc2c(c1)CNc1ccc(C)cc1CN2`, for which the GI50 in the test on DMS-114, in the test on M19-MEL, in the test on DMS-273, in the test on HOP-18, with SNB-78 and in the test on XF498 was > 100 µM (inactive) in each case. Also, the GI50 with LXFL 529 is > 100 µM (inactive).
As for `CC(=O)OC1CC2C(C)(C)C(=O)C=C[C@]2(C)C2CCC3(C)C(c4ccoc4)[C@@H](O)[C@H]4O[C@]43[C@]12C` (stereo not given in full), the GI50 in the test on KM-20L2 was 18.5 µM (inactive); in the test with DMS-114, 20.1 µM (inactive); in the test on M19-MEL, 18.7 µM (inactive); in the test with DMS-273, 22.1 µM (inactive); in the test with HOP-18, 21.6 µM (inactive); in the test on SNB-78, 25.6 µM (inactive). In addition, the GI50 in the test with LXFL 529 was 18.5 µM (inactive).
On to `O=[PH](O)c1cc2c3ccccc3ccc2c2ccccc12`, for which the GI50 in the test on KM-20L2, in the test with DMS-114, in the test on M19-MEL, with DMS-273, in the test with HOP-18 and in the test on SNB-78 was > 100 µM (inactive) throughout. The GI50 in the test with XF498 is 67.3 µM (inactive); in the test on LXFL 529, > 100 µM (inactive).
With `C/N=C(\N=c1/ss/c(=N\C)n1C)N(C)C.[O-][Cl+3]([O-])([O-])O`, the GI50 was > 100 µM (inactive) with KM-20L2; > 100 µM (inactive) with RXF 631; > 100 µM (inactive) with DMS-114; > 100 µM (inactive) in the test on M19-MEL; 37.8 µM (inactive) in the test with DMS-273; 23.9 µM (inactive) in the test on HOP-18. Moreover, the GI50 in the test on XF498 and in the test with LXFL 529 was > 100 µM (inactive) in each case.
Take `COc1cc2c(cc1OC)C1C=NC(C(=O)O)(C2)c2ccccc21` (stereo not given): the GI50 with KM-20L2, in the test with RXF 631, with DMS-114, in the test on M19-MEL, in the test on DMS-273 and with SNB-78 was > 100 µM (inactive) each time. In addition, the GI50 in the test with LXFL 529 was > 100 µM (inactive).
In the case of `N/N=C1\C(=O)N(C2CCCCC2)C(=O)C1C(=O)NC1CCCCC1` (stereo not given), the GI50 in the test with KM-20L2 is 20.7 µM (inactive); in the test on RXF 631, > 100 µM (inactive); with DMS-114, > 100 µM (inactive); in the test on M19-MEL, > 100 µM (inactive); in the test with HOP-18, > 100 µM (inactive); in the test on SNB-78, 43.1 µM (inactive). For the same compound, the GI50 with XF498 and in the test on LXFL 529 was > 100 µM (inactive) in each case.
For the compound `CCOC(=O)C1(C/C=C(/C)Cl)CCCC1=O` (stereo not given), the GI50 is 47.6 µM (inactive) in the test with KM-20L2; 95.1 µM (inactive) in the test with RXF 631; 71.6 µM (inactive) with DMS-114; > 100 µM (inactive) in the test on M19-MEL; 23 µM (inactive) with DMS-273; > 100 µM (inactive) in the test on HOP-18. Also, the GI50 in the test with XF498 and in the test with LXFL 529 was > 100 µM (inactive) throughout.
`NC(CCc1nc(-c2ccccc2)cs1)C(=O)O` (stereo not given): the GI50 in the test with DMS-114, in the test on M19-MEL, with DMS-273, with HOP-18, in the test on SNB-78 and with LXFL 529 was > 100 µM (inactive) throughout.
With `CC(/C=C/C=C\C=C\C=C(/C)C(=O)NC(C)CO)=C\C(C)C(O)/C(C)=C/C(C)CCc1ccccc1` (stereo not given), the GI50 in the test with KM-20L2 is 11.1 µM (inactive); in the test with DMS-114 it was < 0.01 µM (active); in the test with M19-MEL, 5.15 µM (inactive); with DMS-273 it was 1.87 µM (inactive); in the test on HOP-18 it was 10.8 µM (inactive); in the test with SNB-78 it was 8.04 µM (inactive). For the same compound, the GI50 was 7.71 µM (inactive) in the test with XF498 and 3.18 µM (inactive) in the test with LXFL 529.
